{"source": "the supplement of paper PMC11208160", "assay": "recombinant barcode read abundance after kanamycin selection (control-corrected) (log10(CPM+1)); higher = more efficient recombination; sequences stand for … in AGTGCAGAGAAAATCGGCCAGTTTTCTCTGCCTGCAGTCCGCATGCCGT…AGATTTATGCAGCGGACTGCCTTTCTCCCAAAGTGATAAACCGGACAGTATCATGGACCGGTTTTCCCGGTAATCCGTATTTGCAAGGTTGGTTTCACT; site = the 11-nt target", "outline": "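Oligos holding a promoter, target, barcode and the J23119-driven first 104 bases of the bridge RNA were Gibson-cloned into a vector that supplied the other 73 bp plus a T7-inducible recombinase. This library was co-electroporated with a donor plasmid into E. coli. Two replicates went on chloramphenicol/ampicillin LB agar (control) and two on chloramphenicol/ampicillin/kanamycin with 0.1 mM IPTG. Recombination efficiency is read from averaged, control-corrected barcode counts per million at recombinant junctions, reported as log10(CPM+1).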", "data": [{"sequence": "CGAGCAGCTTGGGTTCTAACCTGTTGCCT (site CGAGCAGCTAG)", "values": [{"measurement": "recombinant barcode read abundance (log10)", "value": 0.395}]}, {"sequence": "CGAGCAGCTTGGGTTCTAACCTGTTGCCT (site CGCGCAGCTAG)", "values": [{"measurement": "recombinant barcode read abundance (log10)", "value": 0.152}]}, {"sequence": "CGAGCAGCTTGGGTTCTAACCTGTTGCCT (site CGGGCAGCTAG)", "values": [{"measurement": "recombinant barcode read abundance (log10)", "value": 0.519}]}, {"sequence": "CGAGCAGCTTGGGTTCTAACCTGTTGCCT (site CGTGCAGCTAG)", "values": [{"measurement": "recombinant barcode read abundance (log10)", "value": 0.0197}]}, {"sequence": "CGAGGGTCTTGGGTTCTAACCTGTTGCCT (site CGAGGGACTAG)", "values": [{"measurement": "recombinant barcode read abundance (log10)", "value": 0.0535}]}, {"sequence": "CGAGGGTCTTGGGTTCTAACCTGTTGCCT (site CGAGGGCCTAG)", "values": [{"measurement": "recombinant barcode read abundance (log10)", "value": 0.279}]}, {"sequence": "CGAGGGTCTTGGGTTCTAACCTGTTGCCT (site CGAGGGGCTAG)", "values": [{"measurement": "recombinant barcode read abundance (log10)", "value": 0.0907}]}, {"sequence": "CGAGGGTCTTGGGTTCTAACCTGTTGCCT (site CGAGGGTCTAG)", "values": [{"measurement": "recombinant barcode read abundance (log10)", "value": 1.87}]}, {"sequence": "CGAGGGTCTTGGGTTCTAACCTGTTGCTT (site AGAGGGTCTAA)", "values": [{"measurement": "recombinant barcode read abundance (log10)", "value": 0.172}]}, {"sequence": "CGAGGGTCTTGGGTTCTAACCTGTTGCTT (site CGAGGGTCTAA)", "values": [{"measurement": "recombinant barcode read abundance (log10)", "value": 1.82}]}, {"sequence": "CGAGGGTCTTGGGTTCTAACCTGTTGCTT (site GGAGGGTCTAA)", "values": [{"measurement": "recombinant barcode read abundance (log10)", "value": 0.413}]}, {"sequence": "CGAGGGTCTTGGGTTCTAACCTGTTGCTT (site TGAGGGTCTAA)", "values": [{"measurement": "recombinant barcode read abundance (log10)", "value": 0.147}]}, {"sequence": "CGAGGTTCTTGGGTTCTAACCTGTTGCCT (site CGAGGTTCTAG)", "values": [{"measurement": "recombinant barcode read abundance (log10)", "value": 1.06}]}, {"sequence": "CGAGGTTCTTGGGTTCTAACCTGTTGCCT (site CGCGGTTCTAG)", "values": [{"measurement": "recombinant barcode read abundance (log10)", "value": 0.212}]}, {"sequence": "CGAGTCCCTTGGGTTCTAACCTGTTGCAG (site ATCTAAACTAG)", "values": [{"measurement": "recombinant barcode read abundance (log10)", "value": 0.137}]}, {"sequence": "CGAGTCCCTTGGGTTCTAACCTGTTGCAG (site CGAGTCCCTCT)", "values": [{"measurement": "recombinant barcode read abundance (log10)", "value": 2.15}]}, {"sequence": "CGAGTGTCTTGGGTTCTAACCTGTTGCTA (site CGAGTGTCTTA)", "values": [{"measurement": "recombinant barcode read abundance (log10)", "value": 1.96}]}, {"sequence": "CGAGTGTCTTGGGTTCTAACCTGTTGCTA (site GATCACCCTAT)", "values": [{"measurement": "recombinant barcode read abundance (log10)", "value": 0.0951}]}, {"sequence": "CGATCATCTTGGGTTCTAACCTGTTGCCT (site CGATCATCTAG)", "values": [{"measurement": "recombinant barcode read abundance (log10)", "value": 0.103}]}, {"sequence": "CGATCATCTTGGGTTCTAACCTGTTGCCT (site CGCTCATCTAG)", "values": [{"measurement": "recombinant barcode read abundance (log10)", "value": 0.0503}]}, {"sequence": "CGATCATCTTGGGTTCTAACCTGTTGCCT (site CGGTCATCTAG)", "values": [{"measurement": "recombinant barcode read abundance (log10)", "value": 0.173}]}, {"sequence": "CGATCATCTTGGGTTCTAACCTGTTGCCT (site CGTTCATCTAG)", "values": [{"measurement": "recombinant barcode read abundance (log10)", "value": 0.0823}]}, {"sequence": "CGATCCACTTGGGTTCTAACCTGTTGCCT (site AGATCCACTAG)", "values": [{"measurement": "recombinant barcode read abundance (log10)", "value": 0.0256}]}, {"sequence": "CGATCCACTTGGGTTCTAACCTGTTGCCT (site CGATCCACTAG)", "values": [{"measurement": "recombinant barcode read abundance (log10)", "value": 0.0891}]}, {"sequence": "CGATCCACTTGGGTTCTAACCTGTTGCCT (site GGATCCACTAG)", "values": [{"measurement": "recombinant barcode read abundance (log10)", "value": 1.56}]}, {"sequence": "CGATCCACTTGGGTTCTAACCTGTTGCCT (site TGATCCACTAG)", "values": [{"measurement": "recombinant barcode read abundance (log10)", "value": 0.0673}]}, {"sequence": "CGATCTCCTTGGGTTCTAACCTGTTGCAC (site ACTCACTCTAG)", "values": [{"measurement": "recombinant barcode read abundance (log10)", "value": 0.0376}]}, {"sequence": "CGATCTCCTTGGGTTCTAACCTGTTGCAC (site CGATCTCCTGT)", "values": [{"measurement": "recombinant barcode read abundance (log10)", "value": 0.303}]}, {"sequence": "CGATGACCTTGGGTTCTAACCTGTTGCAT (site CGATGACCTAT)", "values": [{"measurement": "recombinant barcode read abundance (log10)", "value": 1.48}]}, {"sequence": "CGATGACCTTGGGTTCTAACCTGTTGCAT (site CGATGGCCTAT)", "values": [{"measurement": "recombinant barcode read abundance (log10)", "value": 0.107}]}, {"sequence": "CGATGGCCTTGGGTTCTAACCTGTTGCAT (site CGATGACCTAT)", "values": [{"measurement": "recombinant barcode read abundance (log10)", "value": 0.388}]}, {"sequence": "CGATGGCCTTGGGTTCTAACCTGTTGCAT (site CGATGGCCTAT)", "values": [{"measurement": "recombinant barcode read abundance (log10)", "value": 0.433}]}, {"sequence": "CGATTAGCTTGGGTTCTAACCTGTTGCCG (site ATTCACACTAC)", "values": [{"measurement": "recombinant barcode read abundance (log10)", "value": 0.0236}]}, {"sequence": "CGATTAGCTTGGGTTCTAACCTGTTGCCG (site CGATTAGCTCG)", "values": [{"measurement": "recombinant barcode read abundance (log10)", "value": 0.536}]}, {"sequence": "CGATTATCTTGGGTTCTAACCTGTTGCCT (site CGATTAACTAG)", "values": [{"measurement": "recombinant barcode read abundance (log10)", "value": 0.25}]}, {"sequence": "CGATTATCTTGGGTTCTAACCTGTTGCCT (site CGATTACCTAG)", "values": [{"measurement": "recombinant barcode read abundance (log10)", "value": 0.162}]}, {"sequence": "CGATTATCTTGGGTTCTAACCTGTTGCCT (site CGATTAGCTAG)", "values": [{"measurement": "recombinant barcode read abundance (log10)", "value": 0.0752}]}, {"sequence": "CGATTATCTTGGGTTCTAACCTGTTGCCT (site CGATTATCTAG)", "values": [{"measurement": "recombinant barcode read abundance (log10)", "value": 0.0534}]}, {"sequence": "CGCAAGCCTTGGGTTCTAACCTGTTGCAT (site CGCAAGCCTAT)", "values": [{"measurement": "recombinant barcode read abundance (log10)", "value": 0.0608}]}, {"sequence": "CGCAAGCCTTGGGTTCTAACCTGTTGCAT (site CGTAAGCCTAT)", "values": [{"measurement": "recombinant barcode read abundance (log10)", "value": 0}]}, {"sequence": "CGCAGCCCTTGGGTTCTAACCTGTTGCAT (site CGCAGCCCTAT)", "values": [{"measurement": "recombinant barcode read abundance (log10)", "value": 0.462}]}, {"sequence": "CGCAGCCCTTGGGTTCTAACCTGTTGCAT (site CGGAGCCCTAT)", "values": [{"measurement": "recombinant barcode read abundance (log10)", "value": 0.0663}]}, {"sequence": "CGCAGCTCTTGGGTTCTAACCTGTTGCCT (site CGAAGCTCTAG)", "values": [{"measurement": "recombinant barcode read abundance (log10)", "value": 0.0165}]}, {"sequence": "CGCAGCTCTTGGGTTCTAACCTGTTGCCT (site CGCAGCTCTAG)", "values": [{"measurement": "recombinant barcode read abundance (log10)", "value": 0.0301}]}, {"sequence": "CGCAGCTCTTGGGTTCTAACCTGTTGCCT (site CGGAGCTCTAG)", "values": [{"measurement": "recombinant barcode read abundance (log10)", "value": 0.0445}]}, {"sequence": "CGCAGCTCTTGGGTTCTAACCTGTTGCCT (site CGTAGCTCTAG)", "values": [{"measurement": "recombinant barcode read abundance (log10)", "value": 0.511}]}, {"sequence": "CGCCCTCCTTGGGTTCTAACCTGTTGCAT (site CGCCATCCTAT)", "values": [{"measurement": "recombinant barcode read abundance (log10)", "value": 0.0837}]}, {"sequence": "CGCCCTCCTTGGGTTCTAACCTGTTGCAT (site CGCCCTCCTAT)", "values": [{"measurement": "recombinant barcode read abundance (log10)", "value": 0.362}]}, {"sequence": "CGCCCTCCTTGGGTTCTAACCTGTTGCAT (site CGCCGTCCTAT)", "values": [{"measurement": "recombinant barcode read abundance (log10)", "value": 0.117}]}, {"sequence": "CGCCCTCCTTGGGTTCTAACCTGTTGCAT (site CGCCTTCCTAT)", "values": [{"measurement": "recombinant barcode read abundance (log10)", "value": 0.0322}]}, {"sequence": "CGCCGCCCTTGGGTTCTAACCTGTTGCCT (site AGCCGCCCTAT)", "values": [{"measurement": "recombinant barcode read abundance (log10)", "value": 0.447}]}, {"sequence": "CGCCGCCCTTGGGTTCTAACCTGTTGCCT (site CGCCGCCCTAG)", "values": [{"measurement": "recombinant barcode read abundance (log10)", "value": 0.18}]}, {"sequence": "CGCCTCTCTTGGGTTCTAACCTGTTGCCT (site CGCCTCACTAG)", "values": [{"measurement": "recombinant barcode read abundance (log10)", "value": 0.0921}]}, {"sequence": "CGCCTCTCTTGGGTTCTAACCTGTTGCCT (site CGCCTCCCTAG)", "values": [{"measurement": "recombinant barcode read abundance (log10)", "value": 0.211}]}, {"sequence": "CGCCTCTCTTGGGTTCTAACCTGTTGCCT (site CGCCTCGCTAG)", "values": [{"measurement": "recombinant barcode read abundance (log10)", "value": 0.307}]}, {"sequence": "CGCCTCTCTTGGGTTCTAACCTGTTGCCT (site CGCCTCTCTAG)", "values": [{"measurement": "recombinant barcode read abundance (log10)", "value": 0.0707}]}, {"sequence": "CGCGAATCTTGGGTTCTAACCTGTTGCTT (site CGCGAATCTAA)", "values": [{"measurement": "recombinant barcode read abundance (log10)", "value": 0.0373}]}, {"sequence": "CGCGAATCTTGGGTTCTAACCTGTTGCTT (site CGCGGGTCTAA)", "values": [{"measurement": "recombinant barcode read abundance (log10)", "value": 0.168}]}, {"sequence": "CGCGCGGCTTGGGTTCTAACCTGTTGCCT (site CGCGCGGCTAG)", "values": [{"measurement": "recombinant barcode read abundance (log10)", "value": 0.251}]}, {"sequence": "CGCGCGGCTTGGGTTCTAACCTGTTGCCT (site CGCGGGGCTAG)", "values": [{"measurement": "recombinant barcode read abundance (log10)", "value": 0.266}]}, {"sequence": "CGCGGTTCTTGGGTTCTAACCTGTTGCCT (site CGAGGTTCTAG)", "values": [{"measurement": "recombinant barcode read abundance (log10)", "value": 0.339}]}, {"sequence": "CGCGGTTCTTGGGTTCTAACCTGTTGCCT (site CGCGGTTCTAG)", "values": [{"measurement": "recombinant barcode read abundance (log10)", "value": 0.0855}]}, {"sequence": "CGCGTTGCTTGGGTTCTAACCTGTTGCCT (site AAGCCCACTCC)", "values": [{"measurement": "recombinant barcode read abundance (log10)", "value": 0.0136}]}, {"sequence": "CGCGTTGCTTGGGTTCTAACCTGTTGCCT (site CGCGTTGCTAG)", "values": [{"measurement": "recombinant barcode read abundance (log10)", "value": 0.48}]}, {"sequence": "CGCTCGTCTTGGGTTCTAACCTGTTGCCT (site CGCTAGTCTAG)", "values": [{"measurement": "recombinant barcode read abundance (log10)", "value": 0.0163}]}, {"sequence": "CGCTCGTCTTGGGTTCTAACCTGTTGCCT (site CGCTCGTCTAG)", "values": [{"measurement": "recombinant barcode read abundance (log10)", "value": 0.00559}]}]}
